Reference: ChEMBL document CHEMBL3045960 (Pest Manag Sci, 2011)
Converted amounts (≈) assume the structure as drawn.

What follows are compounds tested on Fusarium graminearum (assay: Fungicidal activity against Fusarium graminearum 2021 assessed as mycelial growth inhibition after 3 days). Conditions: Fusarium graminearum, 2021, 72 h.
Format: functional, organism-based
`c1ccc2[nH]c(-c3cscn3)nc2c1` [THIABENDAZOLE] was tested, and the EC50 was 1.13 µg/mL (≈ 5.61 µM). `CCCCNC(=O)n1c(NC(=O)OC)nc2ccccc21` [BENOMYL] gave an EC50 of 0.61 µg/mL (≈ 2.1 µM). `COC(=O)NC(=S)Nc1ccccc1NC(=S)NC(=O)OC` [THIOPHANATE METHYL] gave an EC50 of 11 µg/mL (≈ 32.2 µM).
